Laboratory results taken from patent US20190125735A1, “INHIBITION OF P38 MAPK FOR THE TREATMENT OF CANCER” (Board of Regents, The University of Texas System, priority 2015, published 2019).
Read-outs that look alike come from different tables or passages of the source. Where a SMILES comes first, the peptide text is derived from it. The star is where a group is joined. Cbz = O=C(OCc1ccccc1)*

Assays:
DU145 cells [1] = assay: MTS cell survival assay, DU145 cells; assay type: cell-based, human
Method: (§1) Immunoblotting, Immunofluorescence, RTPCR, wound healing- and tumorsphere assays were performed as previously described (Sarkar et al., 2015). Cell viability (MTS) was assessed using the CellTiter96 Aqueous One-Solution Cell Proliferation Assay kit (Promega).

LNCaP cells = assay: MTS cell survival assay, LNCaP cells over-expressing FOXC2; assay type: cell-based, human; conditions: LNCaP cells with FOXC2 expression
Source text: Since FOXC2 is induced downstream of several different EMT inducers, and is by itself capable of potentiating the effects of multiple independent EMT signals (Taube et al., 2010), it was queried how ectopic expression of FOXC2 would impact the behavior of epithelial-like LNCaP cells, which are androgen-dependent. […] Again, FOXC2-induced EMT was associated with a reduction in PSA-promoter activity (as determined by loss in GFP) (FIG. 3A-lower panel), as well as loss in AR expression (FIGS. 3B,C).
as §1

DU145 cells [2] = assay: DU145 subcutaneous tumors in NOD/SCID mice; assay type: in vivo; conditions: subcutaneous dosing 5 days/week; SB203580 0.2 μmols per mouse, Enzalutamide 10 mg/kg; vs vehicle
Method: To investigate the effect of inhibition of FOXC2-dependent EMT/CSC attributes on tumor formation in vivo, NOD/SCID mice were subcutaneously injected with DU145 cells and began treatment in vivo, after formation of palpable tumors.
Immediately after sacrificing the mice, ˜100 μl blood was isolated via venipuncture in EDTA-treated collection tubes and stored on ice. Within 30 minutes, the blood was spun down at 1200 rpm for 5 minutes, and the pellet resuspended in 1 ml ACK-lysing buffer (Life Tech) and further incubated for 3-5 minutes. Cells were washed once with PBS, resuspended in RPMI with 10% FBS and pen/strep, and cultured on 10 cm tissue culture dishes. RFP-positive colonies (originating from the labeled DU145 cells injected into mice) were counted after 3-4 days in culture and quantified.
˜4 week-old male NOD.CB17-Prkdcscid/J mice were purchased from the Jackson Laboratory (Maine, USA). […] Once palpable tumors were discernable, tumor-bearing mice were randomly segregated into 4 groups, and drug treatment was initiated every 24 hours for 5 days/week. […] Investigators were blinded to the group allocation while assessing experimental outcomes. At the end of the treatment period, tumors were excised, average diameter calculated using calipers, and tumor weight noted. […]

DU145 cells [3] = conditions: parental DU145 cells, even at 10 μM; cited from earlier work
HMLER-Snail cells = assay: Sphere formation in ultra-low attachment plates, HMLER-Snail cells; assay type: cell-based; conditions: Homo sapiens, cultured 7-10 days, spheres >75 μm, read-out: Concentration of the drug that induced 50% reduction in sphere formation
Method: (§2) (A) HMLER-Snail cells were treated with various p38 inhibitors. Cells were seeded in ultra-low attachment plates and cultured for 7-10 days. Spheres with a diameter greater than […] were counted. The data are reported as the number of spheres formed/1000 seeded cells±SEM. […] (B) SUM159 cells were treated with various p38 inhibitors. Cells were seeded in ultra-low attachment plates and cultured for 7-10 days. Spheres with a diameter greater than 75 μm were counted. The data are reported as the number of spheres formed/1000 seeded cells±SEM. […] (C) HMLE-Snail cells were treated with various p38 inhibitors. Cells were seeded in ultra-low attachment plates and cultured for 7-10 days. Spheres with a diameter greater than 75 μm were counted. The data are reported as the number of spheres formed/1000 seeded cells±SEM. […] (D) Western blots of HMLER-Snail cell treatment with various p38 inhibitors on Day 2 of treatment.

SUM159 cells = assay: Sphere formation in ultra-low attachment plates, SUM159 cells; assay type: cell-based; conditions: Homo sapiens, cultured 7-10 days, read-out: Concentration of the drug that induced 50% reduction in sphere formation
Method: as §2

HMLE-Snail cells = assay: Sphere formation in ultra-low attachment plates, HMLE-Snail cells; assay type: cell-based, human; conditions: cultured 7-10 days; for IC50: Homo sapiens, read-out: Concentration of the drug that induced 50% reduction in sphere formation
Method: as §2

[4] = system: BCR-ABL+ mouse ALL cells seeded on MSCs (OP9 cells); assay: Clinical compound library screen, imatinib-pretreated MSC / BCR-ABL+ ALL cell co-culture; assay type: cell-based
Method: The effectiveness of the compounds was determined in preventing cluster formation by microscopy and the toxicity of the compounds by bioluminescence imaging of co-cultured MSCs and leukemic cells.
The clinical compounds library was purchased from the John S. Dunn Gulf Coast Consortium for Chemical Genomics (Houston, Tex.). […] Then, luciferase-labeled BCR-ABL+ mouse ALL cells were seeded on to the MSCs. Treatment was continued for 1 day, and the samples were evaluated via phase-contrast microscopy for the formation of leukemic cell clusters underneath the pretreated MSCs. To determine the compounds' toxicity in MSCs or leukemic cells, we examined the MSC/ALL cell co-cultures via microscopy and/or bioluminescence imaging.
Phase-contrast images of co-cultured MSCs and ALL cells were obtained using an Axio Observer.Z1 microscope, an AxioCam MR camera, and AxioVision software (Zeiss, Oberkochen, Germany). For screening, a cluster was defined as a group of more than five leukemic cells under the MSCs. The total number of leukemic cell clusters was the average number of clusters from three different fields (10× objective). For post-screening experiments, a cluster was defined as a group of more than 10 leukemic cells under the MSCs. The total number of leukemic cell clusters was the average number of clusters from 10 different fields (10× objective).

FOXC2 protein = assay: Western blots of FOXC2 protein in HMLER-Snail cells; assay type: cell-based; conditions: Homo sapiens, 48 h, Day 2 of treatment, read-out: Concentration of the drug that induced 50% reduction in FOXC2 protein
Method: as §2

DU145 cells [5] = assay: Morphology and marker expression (qRTPCR, immunoblotting, IF) in DU145 cells; assay type: cell-based, human; conditions: DU145, LY364947 1 μM
Method: (§3) Cell lines: Authenticated LNCaP, DU145, and PC3 cells were procured from ATCC and cultured in RPMI with 10% fetal bovine serum (FBS) with penicillin/streptomycin. Cells overexpressing EMT transcription factors and shRNA were also cultured in the same media. HEK293T cells were cultured in DMEM with 10% FBS and penicillin/streptomycin. All cell lines used for this study were recently confirmed negative for mycoplasma contamination.
as §1

DU145 cells [6] = assay: Tumorsphere assay, DU145 cells; assay type: cell-based, human; conditions: DU145, LY364947 1 μM
Method: as §3, §1

FOXC2 = FOXC2 protein levels by immunoblotting in mammary cell lines; assay type: cell-based, human; conditions: pre-treatment with 10 μM MG132
Method: Immortalized human mammary epithelial (HMLE) cells expressing empty vector (pWZL), Snail, Twist, Goosecoid (GSC), or an activated form of TGFβ1, V12H-Ras-transformed HMLE (HMLER) and HMLER-FOXC2 cells were maintained as previously described (Elenbaas et al., 2001) For 4-hydroxy-tamoxifen (4-OHT) treatment, HMLE-Snail-ER or HMLE-Twist-ER cells were exposed to 20 nM 4-OHT for the indicated number of days. MCF7, MDA-MB-231 and SUM159 human breast cancer cells and the 4T1 mouse mammary carcinoma cells were cultured as described. Human non-tumorigenic MCF10A cells were cultured as described (Hollier et al., 2013), and treated with 2.5 ng/ml TGFβ1 for 3 days to elicit EMT.
Immunoblotting and immunofluorescence (Mani et al., 2008) were performed as previously described. Primary antibodies were as follows: β-actin (Sigma, St Louis, Mo., USA; A3853), mouse anti-human FOXC2 (Dr. Naoyuki Miura, Hamamatsu University School of Medicine, Japan), goat polyclonal anti-FOXC2 (Santa Cruz Biotechnology, Dallas, Tex., USA; sc-21397), p-p38 (Cell Signaling, Danvers, Mass., USA; 4511), p38 (Cell Signaling; 9211), E-cadherin (BD Biosciences, San Jose, Calif., USA; 61081), fibronectin (BD Biosciences; 610077), vimentin (Novus Biologicals, Littleton, Colo., USA; NB200-623), ZEB1 (Novus Biologicals; NBP1-05987), and HA (Covance, Princeton, N.J., USA; MMS-101P).

[7] = imatinib 5 μM + compound 6.6 μM (dexamethasone 50 nM), 3 days pretreatment + 1 day

## CNC(=O)c1ccc(N2C(=S)N(c3ccc(C#N)c(C(F)(F)F)c3)C(=O)C2(C)C)cc1F [Enzalutamide]
DU145 cells [1]; DU145 with FOXC2 suppression, 100 nM Enzalutamide
  Sensitivity of cells to the drug (cell survival): more sensitive
LNCaP cells
  Resistance of cells to the drug (cell survival): increasingly resistant
DU145 cells [2]
  Tumor size (volume and weight): no appreciable change in tumor size
DU145 cells [3]
  Sensitivity of cells to the drug: insensitive

## NC(=O)c1ccc(N(C(N)=O)c2c(F)cccc2F)nc1-c1ccc(F)cc1F [VX-702]
HMLER-Snail cells
  IC50: 50000 nM
SUM159 cells
  IC50: 50000 nM
HMLE-Snail cells
  Inhibition of sphere formation: did not inhibit sphere formation
[4]; [7]
  Imatinib-induced leukemic cell cluster formation: directly prevented imatinib-induced leukemic cell cluster formation

## O=C(c1cc(Cc2n[nH]c(=O)c3ccccc23)ccc1F)N1CCN(C(=O)C2CC2)CC1 [AZD2281]
[4]; [7]
  Imatinib-induced leukemic cell cluster formation: eliminated the leukemic cell clusters by eliciting toxicity toward clustered leukemic cells

## CNCc1ccc(-c2[nH]c3cc(F)cc4c3c2CCNC4=O)cc1 [AG014699]
[4]; [7]
  Imatinib-induced leukemic cell cluster formation: eliminated the leukemic cell clusters by eliciting toxicity toward clustered leukemic cells

## Oc1ccc(-c2nc(-c3ccc(F)cc3)c(-c3ccncc3)[nH]2)cc1 [SB202190, 4-(4-fluorophenyl)-2-(4-hydroxyphenyl)-5-(4-pyridyl)-1H-imidazole]
[4]; [7]
  Imatinib-induced leukemic cell cluster formation: directly prevented imatinib-induced leukemic cell cluster formation

## O=C1NC(=O)c2c1c1c3ccccc3n3c1c1c2c2ccccc2n1C1CCC3O1 [SB218078]
[4]; [7]
  Imatinib-induced leukemic cell cluster formation: directly prevented imatinib-induced leukemic cell cluster formation

## COc1cc2c(cc1OC)[C@@H]1C(=O)c3ccc4c(c3O[C@@H]1CO2)C=CC(C)(C)O4 [DEGUELIN]
[4]; [7]
  Imatinib-induced leukemic cell cluster formation: directly prevented imatinib-induced leukemic cell cluster formation

## CNC(=O)c1ccc(C)c(-n2c(C)cc(OCc3ccc(F)cc3F)c(Br)c2=O)c1 [PH797804]
HMLER-Snail cells
  IC50: 10 nM
SUM159 cells
  IC50: 100 nM
HMLE-Snail cells
  IC50: 300 nM
FOXC2 protein
  IC50: 50 nM

## c1ccc(-c2[nH]ncc2-c2ccnc3ccccc23)nc1 [LY364947]
DU145 cells [5]
  FOXC2 expression and p38 signaling: concomitant loss in FOXC2 expression and p38 signaling
DU145 cells [6]
  Tumorsphere-forming capacity: markedly reduced tumorsphere-forming capacity

## CC(C)(C)Cn1c(N)nc2ccc(-c3[nH]c(C(C)(C)C)nc3-c3ccc(F)cc3)nc21 [LY2228820]
HMLER-Snail cells
  IC50: 10 nM
SUM159 cells
  IC50: 300 nM
HMLE-Snail cells
  IC50: 3000 nM

## Cc1ccc(NC(=O)c2ccc(CN3CCN(C)CC3)cc2)cc1Nc1nccc(-c2cccnc2)n1 [imatinib]
MSCs
  Phosphorylation of PDGFR-α/β: reduced phosphorylation of PDGFR-α/β
MSCs; vs control
  Phosphorylation of ATF2: higher phosphorylation of ATF2 than control

## Cc1ccc([N+](=O)[O-])cc1S(=O)(=O)N(C)/N=C/c1cnc2ccc(Br)cn12 [PIK75]
[4]; [7]
  Imatinib-induced leukemic cell cluster formation: eliminated the leukemic cell clusters by eliciting toxicity toward clustered leukemic cells

## C[C@@H](N)[C@H]1CC[C@H](C(=O)Nc2ccncc2)CC1 [Y-27632]
[4]; [7]
  Imatinib-induced leukemic cell cluster formation: directly prevented imatinib-induced leukemic cell cluster formation

## CN1CCN(c2ccc3nc(-c4c(N)c5c(F)cccc5[nH]c4=O)[nH]c3c2)CC1 [CHIR258]
[4]
  Imatinib-induced leukemic cell cluster formation: eliminated the leukemic cell clusters by eliciting toxicity toward clustered leukemic cells

## Cc1c[nH]c(-c2cnc(NCCNc3ccc(C#N)cn3)nc2-c2ccc(Cl)cc2Cl)n1 [CHIR99021]
[4]; [7]
  Imatinib-induced leukemic cell cluster formation: directly prevented imatinib-induced leukemic cell cluster formation

## CC(=O)O[C@@]12CO[C@@H]1C[C@H](O)[C@@]1(C)C(=O)[C@H](O)C3=C(C)[C@@H](OC(=O)[C@H](O)[C@@H](NC(=O)OC(C)(C)C)c4ccccc4)C[C@@](O)([C@@H](OC(=O)c4ccccc4)[C@H]21)C3(C)C [Docetaxel]
DU145 cells [1]; DU145 with loss of FOXC2 expression, 100 nM Docetaxel
  Susceptibility of cells to the drug (cell survival): more susceptible
LNCaP cells
  Resistance of cells to the drug (cell survival): increasingly resistant

## CC(C)C[C@@H](C=O)NC(=O)[C@H](CC(C)C)NC(=O)[C@H](CC(C)C)NC(=O)OCc1ccccc1 [MG132] (Cbz-Leu-Leu-Leu-aldehyde)
FOXC2
  Proteolytic degradation of FOXC2 following SB203580 treatment: rescued the proteolytic degradation of FOXC2
